The record followed here is patent USRE39072E1, “2-aminopropane-1,3-diol compounds, medicinal use thereof, and intermediates in synthesizing the same” (Mitsubishi Pharma Corporation, priority 1997, dated 2006).

Data set [1] can be described thus: Body weight change on allogenic skin graft in rats. The class given is in vivo, rat. The note with it: 13 days of consecutive repeat oral administration of 10 mg/kg, rats of allogenic skin graft test (FIG. 2). On the procedure:
(Body weight change on allogenic skin graft in rats)
The changes in body weight in rats of Experimental Example 12 on testing of allogenic skin graft in rats, after 13 days of consecutive repeat oral administration of 10 mg/kg of test compounds are shown in FIG. 2.

The test system of data set [2] is allogenic skin graft (WKAH rat to F344 rat). Briefly: Allogenic skin graft in rats, WKAH rat skin to F344 rat. The class given is in vivo. The conditions noted are these: oral; for mean survival time of skin graft: once a day for 14 days, dose 1 mg/kg or 10 mg/kg (FIG. 1), not stated which. The text has this:
(§1) A full-thickness skin graft (1.5×1.5 cm) of a 4-week-old male WKAH rat or LEW rat is grafted to a graft to a graft bed on the back of a 4-week-old male F344 rat by suture. The graft is covered with a sterile gauze and bound. The bandage is removed 5 days after the grafting and the skin graft is observed daily until it is rejected. […] The number of days from the grafting to rejection is taken as a graft survival days. Test compounds are intraperitoneally, intravenously or orally administered repeatedly once a day for 14 days.
The comparative compound 1 was 2-amino-2-(2-(4-(4-phenylbutyloxy)phenyl)ethyl)propane-1,3-diol disclosed in WO94/08943, comparative compound 2 was 2-amino-2-methyl-2-(2-(4-(4-phenylbutyloxy)phenyl)butanol disclosed in WO96/06068.

In data set [3] the test system is allogenic skin graft (LEW rat to F344 rat). Put plainly: Allogenic skin graft in rats, LEW rat skin to F344 rat. The format is in vivo.
Excerpt: EXPERIMENTAL EXAMPLE 12 (Prolonging effect of skin graft on allogenic skin graft in rats)
as §1

For `NC(CO)(CO)CCc1ccc(C(=O)CCCCc2ccccc2)cc1` [Compound (I-a), 2-amino-2-(2-(4-(1-oxo-5-phenylpentyl)phenyl)ethyl)propane-1,3-diol], in data set [1], the “change in body weight” value is recorded as “natural gain of body weight as in the control group”. In addition, in data set [2], the “prolonging effect on graft survival compared with comparative compound 2” value is reported as “equivalent prolonging effect”; the “prolonging effect on graft survival days compared to control group and comparative compound 1 group” value is listed as “prolonged graft survival days statistically significantly”; the “mean survival time of skin graft” value is 16.6 ± 1.2 days. In addition, in data set [3], the “prolonging effect on graft survival compared to control group administered with vehicle alone” value was “statistically significant prolonging effect”. In addition, in data set [3] (dose not stated), the “mean survival time of skin graft” value is recorded as ≥ 20 days.

With `NC(CO)(CO)CCc1ccc(OCCCCc2ccccc2)cc1` [comparative compound 1, 2-amino-2-(2-(4-(4-phenylbutyloxy)phenyl)ethyl)propane-1,3-diol, reference compound], the “change in body weight” value in data set [1] is “a suppressive effect on the gain of the body weight”. Moreover, in data set [2], the “mean survival time of skin graft” value worked out at 11.9 ± 0.7 days.

`CC(N)(CO)CCc1ccc(OCCCCc2ccccc2)cc1` (stereo not shown) [comparative compound 2, reference compound]: in data set [1], the “change in body weight” value is “a suppressive effect on the gain of the body weight”. For the same molecule, in data set [2], the “mean survival time of skin graft” value came to 15.6 ± 1.4 days.
